In PubChem BioAssay (NCI):
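The compound was tested at five concentrations on cells cultured in 96-well plates, with a 48-hour exposure period. Definition used: TGI = concentration required for complete inhibition of growth.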

Assays:
Assay in all cases: growth of human tumour cells (NCI), 48 h
[1] = test system: 786-0 renal
[2] = test system: A498 renal
[3] = test system: A549 NSCLC
[4] = test system: ACHN renal
[5] = test system: CAKI-1 renal
[6] = test system: CCRF-CEM leukemia
[7] = test system: COLO 205 colon
[8] = test system: DU-145 prostate
[9] = test system: EKVX NSCLC
[10] = test system: HCC-2998 colon
[11] = test system: HCT-116 colon
[12] = test system: HCT-15 colon
[13] = test system: HL-60(TB) leukemia
[14] = test system: HOP-62 NSCLC
[15] = test system: HOP-92 NSCLC
[16] = test system: HS 578T breast
[17] = test system: HT29 colon
[18] = test system: IGROV1 ovarian
[19] = test system: K-562 leukemia
[20] = test system: KM12 colon
[21] = test system: LOX IMVI melanoma
[22] = test system: M14 melanoma
[23] = test system: MALME-3M melanoma
[24] = test system: MCF7 breast
[25] = test system: MDA-MB-231 breast
[26] = test system: MDA-MB-435
[27] = test system: MDA-N
[28] = test system: MOLT-4 leukemia
[29] = test system: NCI-H226 lung
[30] = test system: NCI-H23 lung
[31] = test system: NCI-H460 lung
[32] = test system: NCI-H522 lung
[33] = test system: NCI/ADR-RES ovarian
[34] = test system: OVCAR-3 ovarian
[35] = test system: OVCAR-4 ovarian
[36] = test system: OVCAR-5 ovarian
[37] = test system: OVCAR-8 ovarian
[38] = test system: PC-3 prostate
[39] = test system: RPMI-8226 leukemia
[40] = test system: RXF 393 renal
[41] = test system: SF-268 CNS
[42] = test system: SF-295 CNS
[43] = test system: SF-539 CNS
[44] = test system: SK-MEL-2 melanoma
[45] = test system: SK-MEL-28 melanoma
[46] = test system: SK-MEL-5 melanoma
[47] = test system: SK-OV-3 ovarian
[48] = test system: SN12C renal
[49] = test system: SNB-19 CNS
[50] = test system: SNB-75 CNS
[51] = test system: SR leukemia
[52] = test system: SW-620 colon
[53] = test system: TK-10 renal
[54] = test system: U251 CNS
[55] = test system: UACC-257 melanoma
[56] = test system: UACC-62 melanoma
[57] = test system: T-47D breast

SMILES: CC[C@@H](CCCCC1CC[C@H]2CC(=O)C[C@@H]12)OC (stereo partly drawn)
- TGI [1]: > 100 µM
- TGI [2]: > 100 µM
- TGI [3]: > 100 µM
- TGI [4]: > 100 µM
- TGI [5]: > 100 µM
- TGI [6]: > 100 µM
- TGI [7]: > 100 µM
- TGI [8]: > 100 µM
- TGI [9]: > 100 µM
- TGI [10]: > 100 µM
- TGI [11]: > 100 µM
- TGI [12]: > 100 µM
- TGI [13]: > 100 µM
- TGI [14]: > 100 µM
- TGI [15]: > 100 µM
- TGI [16]: > 100 µM
- TGI [17]: > 100 µM
- TGI [18]: > 100 µM
- TGI [19]: 80.1 µM
- TGI [20]: > 100 µM
- TGI [21]: > 100 µM
- TGI [22]: > 100 µM
- TGI [23]: > 100 µM
- TGI [24]: > 100 µM
- TGI [25]: > 100 µM
- TGI [26]: > 100 µM
- TGI [27]: > 100 µM
- TGI [28]: > 100 µM
- TGI [29]: > 100 µM
- TGI [30]: > 100 µM
- TGI [31]: > 100 µM
- TGI [32]: > 100 µM
- TGI [33]: > 100 µM
- TGI [34]: > 100 µM
- TGI [35]: > 100 µM
- TGI [36]: > 100 µM
- TGI [37]: > 100 µM
- TGI [38]: > 100 µM
- TGI [39]: > 100 µM
- TGI [40]: > 100 µM
- TGI [41]: > 100 µM
- TGI [42]: > 100 µM
- TGI [43]: > 100 µM
- TGI [44]: > 100 µM
- TGI [45]: > 100 µM
- TGI [46]: > 100 µM
- TGI [47]: > 100 µM
- TGI [48]: > 100 µM
- TGI [49]: > 100 µM
- TGI [50]: > 100 µM
- TGI [51]: > 100 µM
- TGI [52]: > 100 µM
- TGI [53]: > 100 µM
- TGI [54]: > 100 µM
- TGI [55]: > 100 µM
- TGI [56]: > 100 µM

SMILES: C1CCCCC2(CCCCCCCCC3(CCC1)SCCS3)SCCS2
- TGI [1]: > 100 µM
- TGI [2]: > 100 µM
- TGI [3]: > 100 µM
- TGI [4]: > 100 µM
- TGI [5]: > 100 µM
- TGI [7]: > 100 µM
- TGI [8]: > 100 µM
- TGI [9]: > 100 µM
- TGI [10]: > 100 µM
- TGI [11]: > 100 µM
- TGI [12]: > 100 µM
- TGI [13]: > 100 µM
- TGI [14]: > 100 µM
- TGI [15]: > 100 µM
- TGI [16]: > 100 µM
- TGI [17]: > 100 µM
- TGI [18]: > 100 µM
- TGI [19]: > 100 µM
- TGI [20]: > 100 µM
- TGI [21]: > 100 µM
- TGI [22]: > 100 µM
- TGI [23]: > 100 µM
- TGI [24]: > 100 µM
- TGI [26]: > 100 µM
- TGI [27]: > 100 µM
- TGI [29]: > 100 µM
- TGI [30]: > 100 µM
- TGI [31]: > 100 µM
- TGI [32]: > 100 µM
- TGI [33]: > 100 µM
- TGI [34]: > 100 µM
- TGI [35]: > 100 µM
- TGI [36]: > 100 µM
- TGI [37]: > 100 µM
- TGI [38]: > 100 µM
- TGI [41]: > 100 µM
- TGI [42]: > 100 µM
- TGI [43]: > 100 µM
- TGI [44]: > 100 µM
- TGI [45]: > 100 µM
- TGI [46]: > 100 µM
- TGI [47]: > 100 µM
- TGI [48]: > 100 µM
- TGI [49]: > 100 µM
- TGI [50]: > 100 µM
- TGI [51]: > 100 µM
- TGI [52]: > 100 µM
- TGI [57]: > 100 µM
- TGI [53]: > 100 µM
- TGI [54]: > 100 µM
- TGI [55]: > 100 µM
- TGI [56]: > 100 µM
